Reference: ChEMBL document CHEMBL3045303, “An efficient, solvent-free microwave-assisted synthesis and antimicrobial screening of 1,6-dihydropyrimidine analogues” (2012)
Converted amounts (≈) assume the structure as drawn.

Legend:
Assay type in all cases: functional
Streptococcus pyogenes = assay: Antimicrobial activity against Streptococcus pyogenes MTCC 442 after 24 hr by serial broth dilution method; details: MTCC 442, 24 h
Escherichia coli = assay: Antimicrobial activity against Escherichia coli MTCC 443 after 24 hr by serial broth dilution method; details: MTCC 443, 24 h
Staphylococcus aureus = assay: Antimicrobial activity against Staphylococcus aureus MTCC 96 after 24 hr by serial broth dilution method; details: MTCC 96, 24 h
Candida albicans = assay: Antimicrobial activity against Candida albicans MTCC 227 after 72 hr by serial broth dilution method; details: MTCC 227, 72 h
Aspergillus niger = assay: Antimicrobial activity against Aspergillus niger MTCC 282 after 72 hr by serial broth dilution method; details: MTCC 282, 72 h
Pseudomonas aeruginosa = assay: Antimicrobial activity against Pseudomonas aeruginosa MTCC 1688 after 24 hr by serial broth dilution method; details: MTCC 1688, 24 h
Aspergillus clavatus = assay: Antimicrobial activity against Aspergillus clavatus MTCC 1323 after 72 hr by serial broth dilution method; details: MTCC 1323, 72 h

Compound	MIC (Streptococcus pyogenes) [µg/mL]	MIC (Escherichia coli) [µg/mL]	MIC (Staphylococcus aureus) [µg/mL]	MIC (Candida albicans) [µg/mL]	MIC (Aspergillus niger) [µg/mL]	MIC (Pseudomonas aeruginosa) [µg/mL]	MIC (Aspergillus clavatus) [µg/mL]
Nc1ccc(C2=CC(c3ccc(O)cc3)NC(S)=N2)cc1 (configuration not stated)	250 (≈ 841 µM)	250 (≈ 841 µM)	–	–	–	–	–
Cc1cccc(C2C=C(c3ccc(N)cc3)N=C(SCCCC#N)N2)c1 (configuration not stated)	500 (≈ 1380 µM)	1000 (≈ 2760 µM)	1000 (≈ 2760 µM)	1000 (≈ 2760 µM)	500 (≈ 1380 µM)	500 (≈ 1380 µM)	1000 (≈ 2760 µM)
N#CCCCSC1=NC(c2ccc(N)cc2)=CC(c2ccc(Cl)cc2)N1 (configuration not stated)	100 (≈ 261 µM)	100 (≈ 261 µM)	500 (≈ 1310 µM)	1000 (≈ 2610 µM)	500 (≈ 1310 µM)	100 (≈ 261 µM)	100 (≈ 261 µM)
COc1cc(C2C=C(c3ccc(N)cc3)N=C(SCCCC#N)N2)ccc1O (configuration not stated)	100 (≈ 253 µM)	25 (≈ 63.4 µM)	250 (≈ 634 µM)	100 (≈ 253 µM)	100 (≈ 253 µM)	100 (≈ 253 µM)	100 (≈ 253 µM)
COC1=CC(=O)C[C@@H](C)[C@]12Oc1c(Cl)c(OC)cc(OC)c1C2=O [GRISEOFULVIN]	–	–	–	500 (≈ 1420 µM)	100 (≈ 283 µM)	–	100 (≈ 283 µM)
N#CCCCSC1=NC(c2ccc(N)cc2)=CC(c2ccc(O)cc2)N1 (configuration not stated)	50 (≈ 137 µM)	25 (≈ 68.6 µM)	500 (≈ 1370 µM)	500 (≈ 1370 µM)	500 (≈ 1370 µM)	1000 (≈ 2740 µM)	200 (≈ 549 µM)
N#CCCCSC1=NC(c2ccc(N)cc2)=CC(c2ccccc2O)N1 (configuration not stated)	100 (≈ 274 µM)	50 (≈ 137 µM)	250 (≈ 686 µM)	200 (≈ 549 µM)	100 (≈ 274 µM)	250 (≈ 686 µM)	500 (≈ 1370 µM)
N#CCCCSC1=NC(c2ccc(N)cc2)=CC(c2ccccc2)N1 (configuration not stated)	1000 (≈ 2870 µM)	500 (≈ 1430 µM)	500 (≈ 1430 µM)	1000 (≈ 2870 µM)	100 (≈ 287 µM)	50 (≈ 143 µM)	1000 (≈ 2870 µM)
CN(C)c1ccc(C2C=C(c3ccc(N)cc3)N=C(SCCCC#N)N2)cc1 (configuration not stated)	1000 (≈ 2550 µM)	500 (≈ 1280 µM)	250 (≈ 638 µM)	1000 (≈ 2550 µM)	500 (≈ 1280 µM)	250 (≈ 638 µM)	1000 (≈ 2550 µM)
COc1ccc(C2C=C(c3ccc(N)cc3)N=C(SCCCC#N)N2)cc1 (configuration not stated)	500 (≈ 1320 µM)	100 (≈ 264 µM)	100 (≈ 264 µM)	500 (≈ 1320 µM)	200 (≈ 528 µM)	25 (≈ 66.1 µM)	50 (≈ 132 µM)
COc1cc(C2C=C(c3ccc(N)cc3)N=C(S)N2)ccc1O (configuration not stated)	250 (≈ 764 µM)	250 (≈ 764 µM)	–	–	–	–	–
COc1ccc(C2C=C(c3ccc(N)cc3)N=C(S)N2)cc1 (configuration not stated)	–	–	–	–	–	250 (≈ 803 µM)	–
CC1(C)S[C@@H]2[C@H](NC(=O)[C@H](N)c3ccccc3)C(=O)N2[C@H]1C(=O)O [AMPICILLIN]	100 (≈ 286 µM)	100 (≈ 286 µM)	250 (≈ 715 µM)	–	–	100 (≈ 286 µM)	–
Cc1ccccc1C1C=C(c2ccc(N)cc2)N=C(SCCCC#N)N1 (configuration not stated)	1000 (≈ 2760 µM)	500 (≈ 1380 µM)	1000 (≈ 2760 µM)	1000 (≈ 2760 µM)	500 (≈ 1380 µM)	250 (≈ 690 µM)	1000 (≈ 2760 µM)
N#CCCCSC1=NC(c2ccc(N)cc2)=CC(c2ccc([N+](=O)[O-])cc2)N1 (configuration not stated)	500 (≈ 1270 µM)	500 (≈ 1270 µM)	500 (≈ 1270 µM)	500 (≈ 1270 µM)	50 (≈ 127 µM)	100 (≈ 254 µM)	200 (≈ 508 µM)
Nc1ccc(C2=CC(c3ccccc3)NC(S)=N2)cc1 (configuration not stated)	–	–	–	–	–	250 (≈ 888 µM)	–
Cc1ccc(C2C=C(c3ccc(N)cc3)N=C(SCCCC#N)N2)cc1 (configuration not stated)	500 (≈ 1380 µM)	100 (≈ 276 µM)	50 (≈ 138 µM)	1000 (≈ 2760 µM)	50 (≈ 138 µM)	500 (≈ 1380 µM)	100 (≈ 276 µM)
N#CCCCSC1=NC(c2ccc(N)cc2)=CC(c2cccc(O)c2)N1 (configuration not stated)	200 (≈ 549 µM)	500 (≈ 1370 µM)	250 (≈ 686 µM)	50 (≈ 137 µM)	500 (≈ 1370 µM)	500 (≈ 1370 µM)	500 (≈ 1370 µM)
